Measurements reported in paper PMC6704710, “Preclinical evaluation of 3D185, a novel potent inhibitor of FGFR1/2/3 and CSF-1R, in FGFR-dependent and macrophage-dominant cancer models” (Journal of Experimental & Clinical Cancer Research : CR, 2019).

Assays:
Test in all cases: Eurofins kinase panel
Format in all cases: biochemical
Details in all cases: read-out: Inhibition rate (%)
ZAK(h) = target: T1, ZAK(h) (Homo sapiens, UniProt Q9NYL2)
T1 construct: purchased Eurofins (KinaseProfiler)

CDKL3(h) = target: T2, CDKL3(h) (Homo sapiens, UniProt Q8IVW4)
T2 construct: purchased Eurofins (KinaseProfiler)

B-Raf(h) = target: T3, B-Raf(h) (Homo sapiens, UniProt P15056)
T3 construct: purchased Eurofins (KinaseProfiler)

CaMKIIγ(h) = target: T4, CaMKIIγ(h) (Homo sapiens, UniProt Q13555)
T4 construct: purchased Eurofins (KinaseProfiler)

SLK(h) = target: T5, SLK(h) (Homo sapiens, UniProt Q9H2G2)
T5 construct: purchased Eurofins (KinaseProfiler)

PTK5(h) = target: T6, PTK5(h) (Homo sapiens, UniProt P42685)
T6 construct: purchased Eurofins (KinaseProfiler)

MRCKα(h) = target: T7, MRCKα(h) (Homo sapiens, UniProt Q5VT25)
T7 construct: purchased Eurofins (KinaseProfiler)

TAF1L(h) = target: T8, TAF1L(h) (Homo sapiens, UniProt Q8IZX4)
T8 construct: purchased Eurofins (KinaseProfiler)

PKCε(h) = target: T9, PKCε(h) (Homo sapiens, UniProt Q02156)
T9 construct: purchased Eurofins (KinaseProfiler)
T9 sequence (Q02156 1-737): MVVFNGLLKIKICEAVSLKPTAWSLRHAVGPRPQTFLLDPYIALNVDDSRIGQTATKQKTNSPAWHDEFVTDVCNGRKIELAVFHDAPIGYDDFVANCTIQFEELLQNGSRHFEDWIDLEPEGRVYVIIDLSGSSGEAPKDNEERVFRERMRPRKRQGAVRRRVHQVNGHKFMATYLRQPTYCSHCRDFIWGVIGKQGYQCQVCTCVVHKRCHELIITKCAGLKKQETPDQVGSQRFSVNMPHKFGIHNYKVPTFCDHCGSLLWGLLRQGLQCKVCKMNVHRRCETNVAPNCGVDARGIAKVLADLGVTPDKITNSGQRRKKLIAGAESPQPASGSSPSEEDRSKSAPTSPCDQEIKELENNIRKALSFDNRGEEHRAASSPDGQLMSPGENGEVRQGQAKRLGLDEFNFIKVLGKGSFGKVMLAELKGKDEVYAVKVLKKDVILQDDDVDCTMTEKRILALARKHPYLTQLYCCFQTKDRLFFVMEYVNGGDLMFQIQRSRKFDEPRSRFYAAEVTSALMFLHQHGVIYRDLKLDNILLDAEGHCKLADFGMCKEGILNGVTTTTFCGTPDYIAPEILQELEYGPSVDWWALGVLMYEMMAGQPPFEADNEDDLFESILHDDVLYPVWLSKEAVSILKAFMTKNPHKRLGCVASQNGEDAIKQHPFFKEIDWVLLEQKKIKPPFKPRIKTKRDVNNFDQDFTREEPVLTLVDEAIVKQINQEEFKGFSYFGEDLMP

HIPK3(h) = target: T10, HIPK3(h) (Homo sapiens, UniProt Q9H422)
T10 construct: purchased Eurofins (KinaseProfiler)

EGFR(T790M,L858R)(h) = target: T11, EGFR(T790M,L858R)(h) (Homo sapiens, UniProt P00533, L858R/T790M)
T11 construct: purchased Eurofins (KinaseProfiler)

PIP5K1γ(h) = target: T12, PIP5K1γ(h) (Homo sapiens, UniProt O60331)
T12 construct: purchased Eurofins (KinaseProfiler)

T4 sequence (Q13555 whole entry): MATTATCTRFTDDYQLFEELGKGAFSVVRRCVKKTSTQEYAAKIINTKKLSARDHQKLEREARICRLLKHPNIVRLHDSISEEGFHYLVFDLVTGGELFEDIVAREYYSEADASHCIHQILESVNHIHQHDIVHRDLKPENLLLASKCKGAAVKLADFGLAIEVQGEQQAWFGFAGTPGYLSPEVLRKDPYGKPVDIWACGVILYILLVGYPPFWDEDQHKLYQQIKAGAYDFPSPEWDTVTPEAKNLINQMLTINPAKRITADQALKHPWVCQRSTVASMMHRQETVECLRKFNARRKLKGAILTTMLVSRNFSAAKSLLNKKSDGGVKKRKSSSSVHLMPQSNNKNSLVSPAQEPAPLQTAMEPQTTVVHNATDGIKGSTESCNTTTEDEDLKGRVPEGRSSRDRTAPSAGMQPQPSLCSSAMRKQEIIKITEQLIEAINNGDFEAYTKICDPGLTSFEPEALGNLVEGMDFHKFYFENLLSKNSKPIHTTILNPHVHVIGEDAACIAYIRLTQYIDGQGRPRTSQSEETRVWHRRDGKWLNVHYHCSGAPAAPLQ
T8 sequence (Q8IZX4 whole entry): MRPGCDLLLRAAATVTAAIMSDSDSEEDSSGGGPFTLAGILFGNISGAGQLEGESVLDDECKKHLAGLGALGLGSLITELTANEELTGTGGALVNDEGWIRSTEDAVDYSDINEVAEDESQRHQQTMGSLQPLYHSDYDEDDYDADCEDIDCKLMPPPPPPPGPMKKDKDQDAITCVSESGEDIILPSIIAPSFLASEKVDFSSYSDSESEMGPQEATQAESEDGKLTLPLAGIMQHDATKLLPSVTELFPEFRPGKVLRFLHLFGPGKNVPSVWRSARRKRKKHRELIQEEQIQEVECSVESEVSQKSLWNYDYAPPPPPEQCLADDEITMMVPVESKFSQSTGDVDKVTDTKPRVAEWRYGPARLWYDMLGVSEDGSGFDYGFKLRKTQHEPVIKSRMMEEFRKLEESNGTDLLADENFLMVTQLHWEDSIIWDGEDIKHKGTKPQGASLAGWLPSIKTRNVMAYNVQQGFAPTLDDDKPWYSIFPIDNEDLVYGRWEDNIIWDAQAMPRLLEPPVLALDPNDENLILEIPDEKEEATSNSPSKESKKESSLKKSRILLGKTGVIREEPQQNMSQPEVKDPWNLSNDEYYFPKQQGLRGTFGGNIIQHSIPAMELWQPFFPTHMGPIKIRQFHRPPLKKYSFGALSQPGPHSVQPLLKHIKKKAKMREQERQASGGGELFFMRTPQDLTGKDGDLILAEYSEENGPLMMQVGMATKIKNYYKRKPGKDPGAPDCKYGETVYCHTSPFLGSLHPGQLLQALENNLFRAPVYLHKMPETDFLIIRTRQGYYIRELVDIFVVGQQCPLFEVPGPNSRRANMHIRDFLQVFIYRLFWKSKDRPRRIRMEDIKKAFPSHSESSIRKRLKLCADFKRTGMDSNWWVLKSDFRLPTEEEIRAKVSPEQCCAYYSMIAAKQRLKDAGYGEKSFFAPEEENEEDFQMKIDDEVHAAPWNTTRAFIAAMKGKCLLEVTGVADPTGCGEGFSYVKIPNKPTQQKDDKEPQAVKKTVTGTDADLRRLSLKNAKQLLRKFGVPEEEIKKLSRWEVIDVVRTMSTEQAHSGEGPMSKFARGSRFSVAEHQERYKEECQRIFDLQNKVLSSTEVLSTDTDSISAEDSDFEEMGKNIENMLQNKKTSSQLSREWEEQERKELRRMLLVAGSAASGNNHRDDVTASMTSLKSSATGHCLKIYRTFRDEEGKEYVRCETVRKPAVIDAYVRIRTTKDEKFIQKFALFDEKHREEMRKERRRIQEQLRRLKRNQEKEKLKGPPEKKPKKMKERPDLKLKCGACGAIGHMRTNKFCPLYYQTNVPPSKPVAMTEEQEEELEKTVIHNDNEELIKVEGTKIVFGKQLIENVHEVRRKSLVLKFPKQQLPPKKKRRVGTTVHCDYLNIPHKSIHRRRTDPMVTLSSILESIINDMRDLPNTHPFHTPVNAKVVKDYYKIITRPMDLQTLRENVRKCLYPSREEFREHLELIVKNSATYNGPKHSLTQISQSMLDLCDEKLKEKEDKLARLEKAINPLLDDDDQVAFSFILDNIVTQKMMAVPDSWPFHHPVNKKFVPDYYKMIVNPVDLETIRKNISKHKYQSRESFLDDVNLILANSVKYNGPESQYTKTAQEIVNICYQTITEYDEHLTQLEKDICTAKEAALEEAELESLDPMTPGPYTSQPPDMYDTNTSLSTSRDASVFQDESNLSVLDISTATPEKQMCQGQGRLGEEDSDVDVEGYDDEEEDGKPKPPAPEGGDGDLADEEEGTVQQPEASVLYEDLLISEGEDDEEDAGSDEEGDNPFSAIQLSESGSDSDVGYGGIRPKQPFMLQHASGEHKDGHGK
T6 sequence (P42685 whole entry): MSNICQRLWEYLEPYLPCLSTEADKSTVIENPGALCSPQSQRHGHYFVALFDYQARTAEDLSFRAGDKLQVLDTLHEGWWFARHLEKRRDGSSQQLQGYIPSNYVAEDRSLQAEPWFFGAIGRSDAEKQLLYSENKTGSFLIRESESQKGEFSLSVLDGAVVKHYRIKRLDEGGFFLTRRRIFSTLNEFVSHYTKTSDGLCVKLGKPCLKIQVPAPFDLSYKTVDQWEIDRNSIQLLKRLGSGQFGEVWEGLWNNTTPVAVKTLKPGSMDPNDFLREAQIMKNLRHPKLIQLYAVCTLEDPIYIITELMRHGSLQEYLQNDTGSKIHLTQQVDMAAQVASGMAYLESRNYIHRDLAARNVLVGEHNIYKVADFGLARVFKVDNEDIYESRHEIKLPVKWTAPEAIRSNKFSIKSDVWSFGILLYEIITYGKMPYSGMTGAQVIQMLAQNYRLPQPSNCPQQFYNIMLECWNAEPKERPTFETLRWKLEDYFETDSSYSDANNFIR
T10 sequence (Q9H422 whole entry): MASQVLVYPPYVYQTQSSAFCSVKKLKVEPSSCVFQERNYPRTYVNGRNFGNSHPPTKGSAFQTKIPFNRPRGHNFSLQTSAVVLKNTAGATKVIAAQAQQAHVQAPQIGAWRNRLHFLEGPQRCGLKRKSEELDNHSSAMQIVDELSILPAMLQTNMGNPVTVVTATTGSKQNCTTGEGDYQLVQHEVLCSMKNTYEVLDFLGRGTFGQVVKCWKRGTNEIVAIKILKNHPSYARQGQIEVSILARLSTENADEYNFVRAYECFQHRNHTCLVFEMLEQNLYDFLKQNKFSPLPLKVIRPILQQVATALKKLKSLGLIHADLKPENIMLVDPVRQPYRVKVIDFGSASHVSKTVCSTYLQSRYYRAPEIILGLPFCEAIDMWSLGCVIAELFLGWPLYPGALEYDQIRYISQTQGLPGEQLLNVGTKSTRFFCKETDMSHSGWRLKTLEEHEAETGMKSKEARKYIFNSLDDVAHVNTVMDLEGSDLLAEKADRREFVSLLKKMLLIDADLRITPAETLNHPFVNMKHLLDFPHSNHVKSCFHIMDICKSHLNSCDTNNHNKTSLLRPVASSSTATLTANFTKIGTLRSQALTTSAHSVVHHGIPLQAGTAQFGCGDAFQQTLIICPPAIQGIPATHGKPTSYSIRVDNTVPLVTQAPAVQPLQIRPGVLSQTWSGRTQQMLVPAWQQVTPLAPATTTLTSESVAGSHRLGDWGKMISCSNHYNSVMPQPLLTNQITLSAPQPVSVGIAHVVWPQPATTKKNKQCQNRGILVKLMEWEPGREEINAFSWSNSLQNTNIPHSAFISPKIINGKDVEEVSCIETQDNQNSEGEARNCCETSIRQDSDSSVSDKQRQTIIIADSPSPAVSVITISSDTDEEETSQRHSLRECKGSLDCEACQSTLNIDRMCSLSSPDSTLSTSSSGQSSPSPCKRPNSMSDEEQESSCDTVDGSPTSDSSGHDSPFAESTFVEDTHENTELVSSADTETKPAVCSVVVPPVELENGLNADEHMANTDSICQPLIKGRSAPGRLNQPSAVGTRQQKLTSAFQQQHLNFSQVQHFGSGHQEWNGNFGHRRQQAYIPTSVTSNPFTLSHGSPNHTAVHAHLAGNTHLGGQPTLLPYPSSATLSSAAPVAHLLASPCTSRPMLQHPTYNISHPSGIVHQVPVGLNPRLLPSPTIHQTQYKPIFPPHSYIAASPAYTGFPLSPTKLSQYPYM
T1 sequence (Q9NYL2 whole entry): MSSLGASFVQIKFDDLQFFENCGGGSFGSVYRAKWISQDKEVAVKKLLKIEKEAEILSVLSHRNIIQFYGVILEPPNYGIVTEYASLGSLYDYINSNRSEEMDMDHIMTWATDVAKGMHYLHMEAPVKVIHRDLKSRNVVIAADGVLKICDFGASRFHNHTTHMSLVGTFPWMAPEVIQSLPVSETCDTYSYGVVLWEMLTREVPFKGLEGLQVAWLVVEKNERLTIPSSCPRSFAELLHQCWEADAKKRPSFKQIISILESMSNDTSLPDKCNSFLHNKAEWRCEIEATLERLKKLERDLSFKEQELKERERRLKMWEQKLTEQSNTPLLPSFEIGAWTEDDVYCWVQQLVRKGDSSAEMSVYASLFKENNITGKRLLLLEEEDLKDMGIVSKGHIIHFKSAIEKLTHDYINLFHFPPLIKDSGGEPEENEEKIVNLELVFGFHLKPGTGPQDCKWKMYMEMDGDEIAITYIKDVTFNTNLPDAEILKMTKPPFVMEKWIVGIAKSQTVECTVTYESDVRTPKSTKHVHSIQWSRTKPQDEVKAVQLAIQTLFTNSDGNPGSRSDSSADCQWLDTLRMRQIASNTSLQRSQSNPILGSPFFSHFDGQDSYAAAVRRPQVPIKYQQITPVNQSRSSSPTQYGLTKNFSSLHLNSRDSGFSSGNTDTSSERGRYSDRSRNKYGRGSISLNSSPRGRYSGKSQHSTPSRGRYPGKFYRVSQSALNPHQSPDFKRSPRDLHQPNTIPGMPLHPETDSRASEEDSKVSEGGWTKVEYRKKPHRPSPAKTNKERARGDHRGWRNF

## COc1cc(OC)c(Cl)c(-c2ccc3c(NC(=O)c4ccc(N5CCNC(C)(C)C5)cc4)n[nH]c3n2)c1Cl [3D185]
ZAK(h); 10 nM
  inhibition at 0.01 µM: 1%
ZAK(h); 100 nM
  inhibition at 0.1 µM: -2%
ZAK(h); 1000 nM
  inhibition at 1 µM: 8%
CDKL3(h); 10 nM
  inhibition at 0.01 µM: -12%
CDKL3(h); 100 nM
  inhibition at 0.1 µM: -17%
CDKL3(h); 1000 nM
  inhibition at 1 µM: -9%
B-Raf(h); 10 nM
  inhibition at 0.01 µM: -4%
B-Raf(h); 100 nM
  inhibition at 0.1 µM: -5%
B-Raf(h); 1000 nM
  inhibition at 1 µM: 5%
CaMKIIγ(h); 10 nM
  inhibition at 0.01 µM: -2%
CaMKIIγ(h); 100 nM
  inhibition at 0.1 µM: -6%
CaMKIIγ(h); 1000 nM
  inhibition at 1 µM: -9%
SLK(h); 10 nM
  inhibition at 0.01 µM: 10%
SLK(h); 100 nM
  inhibition at 0.1 µM: 34%
SLK(h); 1000 nM
  inhibition at 1 µM: 81%
PTK5(h); 10 nM
  inhibition at 0.01 µM: 19%
PTK5(h); 100 nM
  inhibition at 0.1 µM: 64%
PTK5(h); 1000 nM
  inhibition at 1 µM: 91%
MRCKα(h); 10 nM
  inhibition at 0.01 µM: 12%
MRCKα(h); 100 nM
  inhibition at 0.1 µM: 16%
MRCKα(h); 1000 nM
  inhibition at 1 µM: 14%
TAF1L(h); 10 nM
  inhibition at 0.01 µM: -4%
TAF1L(h); 100 nM
  inhibition at 0.1 µM: -9%
TAF1L(h); 1000 nM
  inhibition at 1 µM: -9%
PKCε(h); 10 nM
  inhibition at 0.01 µM: -4%
PKCε(h); 100 nM
  inhibition at 0.1 µM: -10%
PKCε(h); 1000 nM
  inhibition at 1 µM: -6%
HIPK3(h); 10 nM
  inhibition at 0.01 µM: -2%
HIPK3(h); 100 nM
  inhibition at 0.1 µM: -12%
HIPK3(h); 1000 nM
  inhibition at 1 µM: -8%
EGFR(T790M,L858R)(h); 10 nM
  inhibition at 0.01 µM: 6%
EGFR(T790M,L858R)(h); 100 nM
  inhibition at 0.1 µM: 38%
EGFR(T790M,L858R)(h); 1000 nM
  inhibition at 1 µM: 79%
PIP5K1γ(h); 10 nM
  inhibition at 0.01 µM: 6%
PIP5K1γ(h); 100 nM
  inhibition at 0.1 µM: 6%
PIP5K1γ(h); 1000 nM
  inhibition at 1 µM: 10%
